Legend:
KAI3 (IL-2 2.5 ng/mL) [1] = assay: drug sensitivity score (DSS) (DSS units); higher = more sensitive; extreme values may be limits of the assay; conditions: 72 h
[2] = system: normal primary NK cells, pool 1 (3 donors), resting (IL-2 0 ng/mL); assay: as above; conditions: 72 h
[3] = system: normal primary NK cells, pool 1 (3 donors) (IL-2 2.5 ng/mL); assay: as above; conditions: 72 h
[4] = system: normal primary NK cells, pool 2 (3 donors) (IL-2 2.5 ng/mL); assay: as above; conditions: 72 h
IMC-1 (IL-2 20 ng/mL) [5] = assay: as above; conditions: 72 h
[6] = system: normal primary NK cells, pool 3 (3 donors) (IL-2 2.5 ng/mL); assay: as above; conditions: 72 h
NK-YS (IL-2 2.5 ng/mL) [7] = assay: as above; conditions: 72 h
YT (IL-2 2.5 ng/mL) [8] = assay: as above; conditions: 72 h
NK-92 (IL-2 2.5 ng/mL) [9] = assay: as above; conditions: 72 h
KHYG-1 (IL-2 2.5 ng/mL) [10] = assay: as above; conditions: 72 h
NKL (IL-2 2.5 ng/mL) [11] = assay: as above; conditions: 72 h
DERL-7 (IL-2 2.5 ng/mL) [12] = assay: as above; conditions: 72 h
SNK-6 (IL-2 2.5 ng/mL) [13] = assay: as above; conditions: 72 h
[14] = system: normal NK cells expanded with K562-aAPC; assay: as above; conditions: 72 h; IL-2 2.5 ng/mL
Description: (§1)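 Drug sensitivity and resistance testing on K562-aAPC-expanded normal NK cells: 5 concentrations (10-fold steps over a 10,000-fold range), 72 h at 37 °C, viability by CellTiter-Glo normalised to DMSO and benzethonium chloride controls; DSS from the fitted curve.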

KAI3 (IL-2 2.5 ng/mL) [15] = assay: percent inhibition of viability; higher = more inhibition; conditions: 72 h
[16] = system: normal primary NK cells, pool 1 (3 donors), resting (IL-2 0 ng/mL); assay: as above; conditions: 72 h
[17] = system: normal primary NK cells, pool 1 (3 donors) (IL-2 2.5 ng/mL); assay: as above; conditions: 72 h
[18] = system: normal primary NK cells, pool 2 (3 donors) (IL-2 2.5 ng/mL); assay: as above; conditions: 72 h
IMC-1 (IL-2 20 ng/mL) [19] = assay: as above; conditions: 72 h
[20] = system: normal primary NK cells, pool 3 (3 donors) (IL-2 2.5 ng/mL); assay: as above; conditions: 72 h
NK-YS (IL-2 2.5 ng/mL) [21] = assay: as above; conditions: 72 h
YT (IL-2 2.5 ng/mL) [22] = assay: as above; conditions: 72 h
NK-92 (IL-2 2.5 ng/mL) [23] = assay: as above; conditions: 72 h
KHYG-1 (IL-2 2.5 ng/mL) [24] = assay: as above; conditions: 72 h
NKL (IL-2 2.5 ng/mL) [25] = assay: as above; conditions: 72 h
DERL-7 (IL-2 2.5 ng/mL) [26] = assay: as above; conditions: 72 h
SNK-6 (IL-2 2.5 ng/mL) [27] = assay: as above; conditions: 72 h
[28] = system: normal NK cells expanded with K562-aAPC; assay: as above; conditions: 72 h, IL-2 2.5 ng/mL
Description: as §1

C=CC[C@@H]1/C=C(\C)C[C@H](C)C[C@H](OC)[C@H]2O[C@@](O)(C(=O)C(=O)N3CCCC[C@H]3C(=O)O[C@H](/C(C)=C/[C@@H]3CC[C@@H](O)[C@H](OC)C3)[C@H](C)[C@@H](O)CC1=O)[C@H](C)C[C@@H]2OC [Tacrolimus] (max concentration tested 10000 nM)
Conditions | drug sensitivity score
DERL-7 (IL-2 2.5 ng/mL) [12] | 0.55
IMC-1 (IL-2 20 ng/mL) [5] | 0.7
KAI3 (IL-2 2.5 ng/mL) [1] | 0
KHYG-1 (IL-2 2.5 ng/mL) [10] | 0.17
NK-92 (IL-2 2.5 ng/mL) [9] | 2.16
NK-YS (IL-2 2.5 ng/mL) [7] | 1.16
NKL (IL-2 2.5 ng/mL) [11] | 0
SNK-6 (IL-2 2.5 ng/mL) [13] | 0.32
YT (IL-2 2.5 ng/mL) [8] | 1.73
[2] | 6.54
[3] | 2.93
[4] | 1.72
[6] | 0
[14] | 0

percent inhibition of viability [%]
Conditions | 1 nM | 10 nM | 100 nM | 1000 nM | 10000 nM
DERL-7 (IL-2 2.5 ng/mL) [26] | -6.89 | -0.55 | -1.59 | -6.35 | 23
IMC-1 (IL-2 20 ng/mL) [19] | 1.61 | -1.68 | -1.5 | -2.11 | 23.3
KAI3 (IL-2 2.5 ng/mL) [15] | -0.56 | 6.96 | 5.19 | -3.38 | 1.06
KHYG-1 (IL-2 2.5 ng/mL) [24] | -2.54 | -4.56 | 1.9 | 0.69 | 13.5
NK-92 (IL-2 2.5 ng/mL) [23] | -18.9 | -10.1 | -13.5 | 5.35 | 30.1
NK-YS (IL-2 2.5 ng/mL) [21] | 1.38 | -3.09 | 1.86 | 5.94 | 19.8
NKL (IL-2 2.5 ng/mL) [25] | -8.22 | -6.4 | -3.18 | 8.38 | 3.72
SNK-6 (IL-2 2.5 ng/mL) [27] | 6.17 | -4.96 | -13.1 | -0.42 | 16.6
YT (IL-2 2.5 ng/mL) [22] | 0.78 | -1.87 | 1.16 | 5.77 | 24.4
[16] | -2.76 | -12.4 | 9.06 | 17.2 | 71.7
[17] | -2.12 | 0.6 | 4.89 | 4.45 | 43.2
[18] | 6.61 | 4.19 | 3.62 | 3.15 | 28.9
[20] | 10.7 | 1.86 | -0.29 | -2.25 | 1.84
[28] | -12.2 | -4.97 | -9.06 | -4.26 | -5.39

S=P(N1CC1)(N1CC1)N1CC1 [Thio-TEPA] (max concentration tested 50000 nM)
Conditions | drug sensitivity score
DERL-7 (IL-2 2.5 ng/mL) [12] | 0
IMC-1 (IL-2 20 ng/mL) [5] | 0
KAI3 (IL-2 2.5 ng/mL) [1] | 8.32
KHYG-1 (IL-2 2.5 ng/mL) [10] | 0
NK-92 (IL-2 2.5 ng/mL) [9] | 5.84
NK-YS (IL-2 2.5 ng/mL) [7] | 1.65
NKL (IL-2 2.5 ng/mL) [11] | 8.54
SNK-6 (IL-2 2.5 ng/mL) [13] | 1.69
YT (IL-2 2.5 ng/mL) [8] | 0
[2] | 1.68
[3] | 0
[4] | 1.52
[6] | 0
[14] | 0

percent inhibition of viability [%]
Conditions | 5 nM | 50 nM | 500 nM | 5000 nM | 50000 nM
DERL-7 (IL-2 2.5 ng/mL) [26] | 1.93 | 5.03 | -0.04 | 1.45 | 3.25
IMC-1 (IL-2 20 ng/mL) [19] | -2.71 | -4.91 | -3.42 | -4.6 | 8.77
KAI3 (IL-2 2.5 ng/mL) [15] | -3.61 | -4.29 | 12.8 | 35.4 | 69.6
KHYG-1 (IL-2 2.5 ng/mL) [24] | -7.42 | -4.16 | 1.44 | 6.58 | 8.07
NK-92 (IL-2 2.5 ng/mL) [23] | -3.47 | 8.15 | 14.3 | 25.1 | 37.1
NK-YS (IL-2 2.5 ng/mL) [21] | -1.57 | -3.69 | 3 | 9.54 | 24.2
NKL (IL-2 2.5 ng/mL) [25] | -8.09 | 4.28 | 15.5 | 33.8 | 72.4
SNK-6 (IL-2 2.5 ng/mL) [27] | -0.04 | -12.4 | -4.8 | -5.86 | 41.2
YT (IL-2 2.5 ng/mL) [22] | -4.88 | -5.74 | 1.43 | 6.47 | 8.31
[16] | -8.22 | 7.58 | 6.34 | 14.9 | 17.1
[17] | 0.27 | 11.7 | 6.98 | 8.81 | 2.16
[18] | -1.52 | 9.19 | 11.7 | 8.43 | 19.8
[20] | -5.53 | 7.66 | 3.04 | 4.82 | 3.08
[28] | -5.81 | -5.71 | -4.89 | 3.45 | 9

COc1cc(Nc2ncc(F)c(Nc3ccc4c(n3)NC(=O)C(C)(C)O4)n2)cc(OC)c1OC [Tamatinib] (max concentration tested 10000 nM)
Conditions | drug sensitivity score
DERL-7 (IL-2 2.5 ng/mL) [12] | 5.34
IMC-1 (IL-2 20 ng/mL) [5] | 2.27
KAI3 (IL-2 2.5 ng/mL) [1] | 11.7
KHYG-1 (IL-2 2.5 ng/mL) [10] | 9.92
NK-92 (IL-2 2.5 ng/mL) [9] | 6.83
NK-YS (IL-2 2.5 ng/mL) [7] | 5.03
NKL (IL-2 2.5 ng/mL) [11] | 7.84
SNK-6 (IL-2 2.5 ng/mL) [13] | 4.09
YT (IL-2 2.5 ng/mL) [8] | 5.49
[2] | 0
[3] | 1.62
[4] | 3.61
[6] | 3.27
[14] | 5

percent inhibition of viability [%]
Conditions | 1 nM | 10 nM | 100 nM | 1000 nM | 10000 nM
DERL-7 (IL-2 2.5 ng/mL) [26] | -3.21 | -4.44 | -1.63 | 29.5 | 38.5
IMC-1 (IL-2 20 ng/mL) [19] | -4.81 | -0.95 | -11 | -15.5 | 56.1
KAI3 (IL-2 2.5 ng/mL) [15] | 4.14 | 8.73 | 12.3 | 52.5 | 82.4
KHYG-1 (IL-2 2.5 ng/mL) [24] | 1.54 | -0.18 | 6.88 | 36 | 99.6
NK-92 (IL-2 2.5 ng/mL) [23] | -17.2 | -0.02 | -13.7 | 11 | 90.4
NK-YS (IL-2 2.5 ng/mL) [21] | -3.68 | -3.13 | -0.99 | 12.5 | 56.2
NKL (IL-2 2.5 ng/mL) [25] | -1.49 | -0.26 | 2.39 | 34.2 | 68.3
SNK-6 (IL-2 2.5 ng/mL) [27] | 2.85 | 9.06 | -0.26 | -7.25 | 83
YT (IL-2 2.5 ng/mL) [22] | 2.46 | 0.67 | 2.31 | 5.93 | 82.7
[16] | -31.4 | -30.1 | -18.1 | -11 | -3.1
[17] | -10.3 | -6.76 | 7.45 | 9.38 | 25.4
[18] | -10 | -7.66 | -17.3 | 5.93 | 49.9
[20] | -10.4 | -5.15 | -13.3 | 2.62 | 54.5
[28] | 0.12 | 1.7 | 1.14 | 27.4 | 36.2
